Source: patent US20230107642A1 (Erasca, Inc., priority 2020, published 2023)

The compounds below were run against T1, K-Ras G12C (Homo sapiens, UniProt P01116, G12C) (assay: CAF assay (% CAF; method in Example 7, not in this part)). Settings: 10 uM compound, 1 h incubation.
T1 construct: This protein contained 188 amino acids in total, including an N-terminal 6-Histidine tag; made in house; host or cells: E. coli BL21
Format: binding

SMILES | % CAF @ 10 uM, 1h [%]
C=CC(=O)N1C[C@H](C)N(c2nc(=O)n3c4c(c(-c5cc(Cl)c(F)cc5F)c(C(F)(F)F)cc24)SC[C@@H]3COCCOC)C[C@H]1C (atropisomer, axis not shown) [Example 555, (3S,10R)-7-((2S,5R)-4-acryloyl-2,5-dimethylpiperazin-1-yl)-10-(5-chloro-2,4-difluorophenyl)-3-((2-methoxyethoxy)methyl)-9-(trifluoromethyl)-2,3-dihydro-5H-[1,4]thiazino[2,3,4-ij]quinazolin-5-one] | 67.6
C=CC(=O)N1[C@H](C)CN(c2nc(=O)n3c4c(c(-c5cc(Cl)c(F)cc5F)c(C(F)(F)F)cc24)SC[C@H](OC)C3)C[C@@H]1C [Example 535, (3R)-8-((3S,5R)-4-acryloyl-3,5-dimethylpiperazin-1-yl)-11-(5-chloro-2,4-difluorophenyl)-3-methoxy-10-(trifluoromethyl)-3,4-dihydro-2H,6H-[1,4]thiazepino[2,3,4-ij]quinazolin-6-one] | 96
C=CC(=O)N1[C@H](C)CN(c2nc(=O)n3c4c(c(-c5ccc(F)cc5F)c(C(F)(F)F)cc24)SC[C@@H]3COC)C[C@@H]1C (atropisomer, axis not shown) [Example 546, (3S,10S)-7-((3S,5R)-4-acryloyl-3,5-dimethylpiperazin-1-yl)-10-(2,4-difluorophenyl)-3-(methoxymethyl)-9-(trifluoromethyl)-2,3-dihydro-5H-[1,4]thiazino[2,3,4-ij]quinazolin-5-one] | 94.3
C=CC(=O)N1C[C@H](C)N(c2nc(=O)n3c4c(c(-c5ccc(F)cc5F)c(C(F)(F)F)cc24)SC[C@@H]3COC)C[C@H]1C [Example 493, (3S)-7-((2S,5R)-4-acryloyl-2,5-dimethylpiperazin-1-yl)-10-(2,4-difluorophenyl)-3-(methoxymethyl)-9-(trifluoromethyl)-2H-[1,4]thiazino[2,3,4-ij]quinazolin-5(3H)-one] | 78.6
C=CC(=O)N1CCN(c2nc(=O)n3c4c(c(-c5cc(Cl)c(F)cc5F)c(Cl)cc24)SC[C@@H]3CN2CCC3(CC2)COC3)[C@@H](C)C1 (atropisomer, axis not shown) [Example 482, (3S,10S)-3-((2-oxa-7-azaspiro[3.5]nonan-7-yl)methyl)-7-((S)-4-acryloyl-2-methylpiperazin-1-yl)-9-chloro-10-(5-chloro-2,4-difluorophenyl)-2,3-dihydro-5H-[1,4]thiazino[2,3,4-ij]quinazolin-5-one] | 90
C=CC(=O)N1C[C@H](C)N(c2nc(=O)n3c4c(c(-c5ccc(F)cc5F)c(C(F)(F)F)cc24)SC[C@@H]3CN2CCN(C3CC3)CC2)C[C@H]1C (single isomer, unassigned) [Example 581] | 97.4
C=CC(=O)N1[C@H](C)CN(c2nc(=O)n3c4c(c(-c5ccc(F)cc5F)c(C(F)(F)F)cc24)SC[C@@H]3CN2CCC3(CC2)COC3)C[C@@H]1C (atropisomer, axis not shown) [Example 576, (3S,10S)-3-(2-oxa-7-azaspiro[3.5]nonan-7-ylmethyl)-7-((3S,5R)-4-acryloyl-3,5-dimethylpiperazin-1-yl)-10-(2,4-difluorophenyl)-9-(trifluoromethyl)-2H-[1,4]thiazino[2,3,4-ij]quinazolin-5(3H)-one] | 80.5
C=CC(=O)N1[C@H](C)CN(c2nc(=O)n3c4c(c(-c5ccc(F)cc5F)c(C(F)(F)F)cc24)SC[C@@H]3CN2CCC3(CC2)COC3)C[C@@H]1C (atropisomer, axis not shown) [Example 577, (3S)-3-(2-oxa-7-azaspiro[3.5]nonan-7-ylmethyl)-7-((3S,5R)-4-acryloyl-3,5-dimethylpiperazin-1-yl)-10-(2,4-difluorophenyl)-9-(trifluoromethyl)-2H-[1,4]thiazino[2,3,4-ij]quinazolin-5(3H)-one] | 74.8
C=CC(=O)N1CCN(c2nc(=O)n3c4c(c(-c5ccc(F)cc5)c(C(F)(F)F)cc24)SC[C@@H]3CC2CCN(C3COC3)CC2)[C@@H](C)C1 [Example 425, (S)-7-((S)-4-acryloyl-2-methylpiperazin-1-fluorophenyl)-3-((1-(oxetan-3-yl)piperidin-4-yl)methyl)-9-(trifluoromethyl)-2H-[1,4]thiazino[2,3,4-ij]quinazolin-5(3H)-one] | 94.7
C=CC(=O)N1C[C@H](C)N(c2nc(=O)n3c4c(c(-c5ccc(F)cc5F)c(Cl)cc24)SC[C@@H]3CN2CCN(CC(F)F)CC2)C[C@H]1C [Example 550, (3S)-7-((2S,5R)-4-acryloyl-2,5-dimethylpiperazin-1-yl)-9-chloro-3-((4-(2,2-difluoroethyl)piperazin-1-yl)methyl)-10-(2,4-difluorophenyl)-2H-[1,4]thiazino[2,3,4-ij]quinazolin-5(3H)-one] | 91.6

Same assay, conditions: 10 uM, 1 h; Table 3

SMILES | % CAF @ 10 uM, 1h [%]
C=CC(=O)N1CCN(c2nc(=O)n3c4c(c(-c5cccc6ccccc56)c(Cl)cc24)SCC3)[C@@H](C)C1 [Example 154, (R)-7-((S)-4-acryloyl-2-methylpiperazin-1-yl)-9-chloro-10-(naphthalen-1-yl)-2,3-dihydro-5H-[1,4]thiazino[2,3,4-ij]quinazolin-5-one] | 24
C=CC(=O)N1[C@H](C)CN(c2nc(=O)n3c4c(c(-c5ccc(F)cc5F)c(Cl)cc24)SCC3)C[C@@H]1C [Example 157, 7-((3R,5S)-4-acryloyl-3,5-dimethylpiperazin-1-yl)-9-chloro-10-(2,4-difluorophenyl)-2,3-dihydro-5H-[1,4]thiazino[2,3,4-ij]quinazolin-5-one] | 95
C=CC(=O)N1CCN(c2nc(=O)n3c4c(c(-c5ccc(F)cc5F)c(Cl)cc24)SCC3)[C@@H](CO)C1 [Example 150, 7-((R)-4-acryloyl-2-(hydroxymethyl)piperazin-1-yl)-9-chloro-10-(2,4-difluorophenyl)-2,3-dihydro-5H-[1,4]thiazino[2,3,4-ij]quinazolin-5-one] | 59.9
C=CC(=O)N1CCN(c2nc(=O)n3c4c(c(-c5cc(Cl)c(F)cc5F)c(Cl)cc24)SCC3)[C@@H](C)C1 [Example 82, 7-((S)-4-acryloyl-2-methylpiperazin-1-yl)-9-chloro-10-(5-chloro-2,4-difluorophenyl)-2,3-dihydro-5H-[1,4]thiazino[2,3,4-ij]quinazolin-5-one] | 85.8
C=CC(=O)N1C2CN(C(C)=O)CC1CN(c1nc(=O)n3c4c(c(-c5ccc(F)cc5F)c(Cl)cc14)SCC3)C2 [Example 72] | 80.5
C=CC(=O)N1CCN(c2nc(=O)n3c4c(c(-c5cc(F)c(F)c(F)c5)c(Cl)cc24)SCC3)[C@@H](C)C1 [Example 90, (S)-7-(4-acryloyl-2-methylpiperazin-1-yl)-9-chloro-10-(3,4,5-trifluorophenyl)-2,3-dihydro-5H-[1,4]thiazino[2,3,4-ij]quinazolin-5-one] | 78.8
C[C@H]1CN(C(=O)/C=C/C(F)(F)F)CCN1c1nc(=O)n2c3c(c(-c4ccc(F)c(Cl)c4)c(Cl)cc13)SCC2 [Example 93, (S,E)-9-chloro-10-(3-chloro-4-fluorophenyl)-7-(2-methyl-4-(4,4,4-trifluorobut-2-enoyl)piperazin-1-yl)-2,3-dihydro-5H-[1,4]thiazino[2,3,4-ij]quinazolin-5-one] | 95
C[C@H]1CN(C(=O)/C=C/C(F)F)CCN1c1nc(=O)n2c3c(c(-c4ccc(F)cc4F)c(Cl)cc13)SCC2 [Example 119, 9-chloro-7-((S)-4-((E)-4,4-difluorobut-2-enoyl)-2-methylpiperazin-1-yl)-10-(2,4-difluorophenyl)-2,3-dihydro-5H-[1,4]thiazino[2,3,4-ij]quinazolin-5-one] | 97.1
C=CC(=O)N1CCN(c2nc(=O)n3c4c(c(-c5ccc(F)cc5F)c(Cl)cc24)[S@+]([O-])CC3)[C@@H](C)C1 [Example 192, 7-((S)-4-acryloyl-2-methylpiperazin-1-yl)-9-chloro-10-(2,4-difluorophenyl)-2,3-dihydro-5H-[1,4]thiazino[2,3,4-ij]quinazolin-5-one 1-oxide] | 62.4
C=CC(=O)N1CCN(c2nc(=O)n3c4c(c(-c5ccc(F)cc5F)c(Cl)cc24)SC[C@H]3COC)[C@@H](C)C1 [Example 130, (3R)-7-((S)-4-acryloyl-2-methylpiperazin-1-yl)-9-chloro-10-(2,4-difluorophenyl)-3-(methoxymethyl)-2,3-dihydro-5H-[1,4]thiazino[2,3,4-ij]quinazolin-5-one] | 94.5
C=CC(=O)N1CCN(c2nc(=O)n3c4c(c(-c5cccc(F)c5F)c(Cl)cc24)SCC3)[C@@H](C)C1 [Example 74, 7-((S)-4-acryloyl-2-methylpiperazin-1-yl)-9-chloro-10-(2,3-difluorophenyl)-2,3-dihydro-5H-[1,4]thiazino[2,3,4-ij]quinazolin-5-one] | 95.6

Same assay, conditions: 10 μM, 1 h; Table 4

SMILES | % CAF @ 10 μM, 1 h [%]
C=CC(=O)N1CCN(c2nc(=O)n3c4c(c(-c5c(F)cc(F)cc5F)c(Cl)cc24)SC[C@@H]3CN2CCN(CC)CC2)[C@@H](C)C1 [Example 351, (S)-7-((S)-4-acryloyl-2-methylpiperazin-1-yl)-9-chloro-3-((4-ethylpiperazin-1-yl)methyl)-10-(2,4,6-trifluorophenyl)-2H-[1,4]thiazino[2,3,4-ij]quinazolin-5(3H)-one] | 74
C=CC(=O)N1CCN(c2nc(=O)n3c4c(c(-c5ccc(F)cc5F)c(Cl)cc24)SC[C@H]3COC)[C@@H](C)C1 [Example 130, (3R)-7-((S)-4-acryloyl-2-methylpiperazin-1-yl)-9-chloro-10-(2,4-difluorophenyl)-3-(methoxymethyl)-2,3-dihydro-5H-[1,4]thiazino[2,3,4-ij]quinazolin-5-one] | 94.5
C=CC(=O)N1CCN(c2nc(=O)n3c4c(c(-c5ccc(F)cc5)c(Cl)cc24)SC[C@H]3CC2CCN(CC(F)F)CC2)[C@@H](C)C1 [Example 349, (R)-7-((S)-4-acryloyl-2-methylpiperazin-1-yl)-9-chloro-3-((1-(2,2-difluoroethyl)piperidin-4-yl)methyl)-10-(4-fluorophenyl)-2H-[1,4]thiazino[2,3,4-ij]quinazolin-5(3H)-one] | 94
